Measured values from US8097422B2, “Kir channel modulators” (Salk Institute for Biological Studies, priority 2007, dated 2012).
Positions count from the first letter of the chain named.

Experiments:
Assay type in all cases: cell-based
[1] = biological target: T1, GIRK2 PIP channel (Mus musculus, UniProt P48542, D228N/I234L/N231K); assay: whole-cell patch clamp, GIRK2 PIP chimeric channel; details: equimolar alcohol series (50 mM)
T1 construct: expressed in transfected cells; host or cells: HEK293 / HEK293T
T1 sequence (P48542 1-425 D228N/N231K/I234L): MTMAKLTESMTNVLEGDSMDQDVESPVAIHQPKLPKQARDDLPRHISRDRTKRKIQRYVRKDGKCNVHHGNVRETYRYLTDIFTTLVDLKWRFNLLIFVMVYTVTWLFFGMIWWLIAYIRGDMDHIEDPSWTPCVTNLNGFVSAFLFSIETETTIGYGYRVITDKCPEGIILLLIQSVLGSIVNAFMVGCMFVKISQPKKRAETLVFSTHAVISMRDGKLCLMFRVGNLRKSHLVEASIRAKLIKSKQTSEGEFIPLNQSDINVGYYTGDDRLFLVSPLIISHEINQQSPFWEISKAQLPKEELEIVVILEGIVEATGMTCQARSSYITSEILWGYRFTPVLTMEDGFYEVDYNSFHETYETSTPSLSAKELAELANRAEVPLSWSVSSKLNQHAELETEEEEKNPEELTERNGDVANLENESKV
Protocol: To test whether this sensitivity to inhibition would be altered by mutation at the MPD-bound hydrophobic pocket, Leu257 was mutated to Trp for this channel.
HEK 293T cells were cultured in DMEM supplemented with 10% FBS, and 1× Glutamax (Invitrogen) in a humidified 37° incubator with 5% CO2. Cells were plated in a 12 well dish, and were transiently transfected using Lipofectamine 2000 (Invitrogen). After 12-24 hrs, cells were re-plated to 12-mm glass coverslips coated with poly-D-Lysine (20 microgram/ml).
HEK293 cells were transfected with 0.2 micrograms of channel cDNA. The cells were co-transfected with 0.04 micrograms of eYFP cDNA to identify transfected cells. 0.8 micrograms of Muscarinic Receptor 2 (M2R) was also co-transfected for experiments with Carbachol. For experiments with and without m-phosducin, 0.8 ug of m-phosducin cDNA was used versus a PCDNA3.1 vector control.
Whole-cell patch clamp recordings were performed 24-72 hrs after transfection. Borosilicate glass electrodes (Warner Instruments) of 5-7 milliohms filled with intracellular solution (130 mM KCl, 20 mM NaCl, 5 mM EGTA, 2.56 mM K2ATP, 5.46 mM MgCl2, 0.30 mM Li2GTP, and 10 mM HEPES (pH 7.4)) was used. Membrane currents were recorded using Axopatch 200B (Axon Instruments) amplifier, adjusted electronically for cell capacitance and series resistance (80-100%), filtered at 1 kHz with an 8-pole Bessel filter and digitized at 5 kHz with a Digidata 1200 interface (Axon Instruments). The cells rapidly perfused with a 20 mM K^+ (20K) solution (20 mM KCl, 140 mM NaCl, 0.5 mM CaCl2, 2 mM MgCl2 and 10 mM HEPES (pH7.4)). Alcohols, 5 μM Carbachol, and 1 mM BaCl2 (diluted in 20K solution) were applied from outside the cell with the rapid perfusion system (Warner Instruments). Whole-cell currents were measured using a ramp protocol that holds at −40 mV, steps to −100 mV then ramps to +50 mV and repeats every 2 seconds. Current-voltage relationships also were obtained from the ramp protocol. This protocol was used to measure the inwardly rectifying currents at −100 mV and to ensure stability of recording by monitoring a reversal potential and inward rectification. Current density was measured by dividing inward current at −100 mV by membrane capacitance that was compensated during the recording. Basal currents were measured as the Ba^++ blocked inward currents at −100 mV. Alcohol and Carbachol modulated currents were measured by averaging two consecutive current readings upon reaching steady state, and subtracting the averaged basal current before and after the application of modulator. Pooled data are presented as Mean±SEM and evaluated for statistical significance by a 1-way ANOVA, followed by Bonferroni's multiple comparison post-hoc test.

[2] = biological target: T2, GIRK4* Leu252 to Ala mutant channel (Rattus norvegicus, UniProt P48548, L252A/S143T); assay: whole-cell patch clamp, GIRK4* L252A mutant channel; details: for percent activation of GIRK4* Leu252 to Ala mutant: n=8
T2 construct: expressed in transfected cells; host or cells: HEK293 / HEK293T
T2 sequence (P48548 1-419 S143T/L252A): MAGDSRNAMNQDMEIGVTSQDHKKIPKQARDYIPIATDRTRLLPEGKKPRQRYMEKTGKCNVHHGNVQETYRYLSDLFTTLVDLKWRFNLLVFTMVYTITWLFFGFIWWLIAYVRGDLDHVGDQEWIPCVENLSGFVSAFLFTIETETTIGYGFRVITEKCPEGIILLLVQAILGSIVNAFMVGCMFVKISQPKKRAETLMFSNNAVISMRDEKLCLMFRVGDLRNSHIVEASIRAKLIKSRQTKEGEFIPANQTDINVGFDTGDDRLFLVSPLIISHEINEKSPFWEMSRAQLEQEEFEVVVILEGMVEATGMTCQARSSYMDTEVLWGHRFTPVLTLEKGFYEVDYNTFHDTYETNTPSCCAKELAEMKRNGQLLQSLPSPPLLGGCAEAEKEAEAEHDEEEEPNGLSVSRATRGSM
Protocol: (§1) Point mutations were introduced by Quickchange site directed mutagenesis kit (Stratagene). The GIRK2 PIP mutant was generated by overlap-PCR method. […] Mutations were confirmed by automated DNA sequencing methods. […] Cells were plated in a 12 well dish, and were transiently transfected using Lipofectamine 2000 (Invitrogen). After 12-24 hrs, cells were re-plated to 12-mm glass coverslips coated with poly-D-[…] microgram/ml). […] The cells were co-transfected with 0.04 micrograms of eYFP cDNA to identify transfected cells. 0.8 micrograms of Muscarinic Receptor 2 (M2R) was also co-transfected for experiments with Carbachol. […] Whole-cell patch clamp recordings were performed 24-72 hrs after transfection. […] Alcohols, 5 μM Carbachol, and 1 mM BaCl2 (diluted in 20K solution) were applied from outside the cell with the rapid perfusion system (Warner Instruments). […] Current-voltage relationships also were obtained from the ramp protocol. This protocol was used to measure the inwardly rectifying currents at -100 mV and to ensure stability of recording by monitoring a reversal potential and inward rectification. […] Alcohol and Carbachol modulated currents were measured by averaging two consecutive current readings upon reaching steady state, and subtracting the averaged basal current before and after the application of modulator.

[3] = biological target: T3, GIRK2 PIP S148T mutant channel (Mus musculus, UniProt P48542, D228N/I234L/M344L/N231K/S148T); assay: whole-cell patch clamp, GIRK2 PIP S148T mutant channel; details: 50 mM alcohols
T3 construct: expressed in transfected cells; host or cells: HEK293 / HEK293T
T3 sequence (P48542 1-425 S148T/D228N/N231K/I234L/M344L): T1 sequence (P48542 1-425 D228N/N231K/I234L) with S148T, M344L
Protocol: as §1

[4] = biological target: T4, GIRK2 L257A mutant channel (Mus musculus, UniProt P48542, L257A); assay: whole-cell patch clamp, GIRK2 L257A mutant channel; details: n=9; for activation of GIRK2 L257A, percentage change from basal current: alcohols as for wild type (100 mM)
T4 construct: expressed in transfected cells; host or cells: HEK293T
T4 sequence (P48542 1-425 L257A): T1 sequence (P48542 1-425 D228N/N231K/I234L) with N228D, K231N, L234I, L257A
Protocol: as §1

[5] = biological target: T5, IRK1 L245W mutant channel (Mus musculus, UniProt P35561, L245W); assay: whole-cell patch clamp, IRK1 L245W mutant channel; details: equimolar 50 mM alcohol series
T5 construct: expressed in transfected cells; host or cells: HEK293 / HEK293T
T5 sequence (P35561 1-428 L245W): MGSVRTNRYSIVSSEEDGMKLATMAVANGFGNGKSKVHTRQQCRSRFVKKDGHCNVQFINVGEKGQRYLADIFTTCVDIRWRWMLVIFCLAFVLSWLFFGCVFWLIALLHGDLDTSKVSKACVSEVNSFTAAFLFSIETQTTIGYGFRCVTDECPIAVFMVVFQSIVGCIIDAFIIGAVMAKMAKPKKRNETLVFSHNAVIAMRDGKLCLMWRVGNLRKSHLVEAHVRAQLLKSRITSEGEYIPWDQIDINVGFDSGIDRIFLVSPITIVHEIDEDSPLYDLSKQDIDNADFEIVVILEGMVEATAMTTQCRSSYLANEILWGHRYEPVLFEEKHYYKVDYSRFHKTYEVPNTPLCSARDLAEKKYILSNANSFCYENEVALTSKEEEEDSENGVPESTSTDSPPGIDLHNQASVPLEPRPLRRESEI
Protocol: as §1

Compound	inhibition of GIRK2 PIP channel, percentage inhibition [1]	percent activation of GIRK4* Leu252 to Ala mutant [2]	inhibition of GIRK2 PIP S148T, percentage inhibition [3]	activation of GIRK2 L257A, percentage change from basal current [4]	inhibition of IRK1 L245W mutant channel, percentage inhibition [5]	Carb (G-protein mediated) activation, GIRK4* L252 Ala ([2]; 5 μM Carbachol)	Carbachol activated currents, GIRK2 L257A, percentage change from basal current ([4]; 5 μM Carbachol, M2R co-transfected)
1-propanol [1-PrOH]	−87±2%	86±8%	−15±1%	467±44%	−8±1%		
1-butanol [1-BuOH]	−97±1%		−28±1%		−20±2%		

The next lines start with the values.

inhibition of GIRK2 PIP channel, percentage inhibition [1]	percent activation of GIRK4* Leu252 to Ala mutant [2]	inhibition of GIRK2 PIP S148T, percentage inhibition [3]	activation of GIRK2 L257A, percentage change from basal current [4]	inhibition of IRK1 L245W mutant channel, percentage inhibition [5]	Carb (G-protein mediated) activation, GIRK4* L252 Ala ([2]; 5 μM Carbachol)	Carbachol activated currents, GIRK2 L257A, percentage change from basal current ([4]; 5 μM Carbachol, M2R co-transfected)	Compound
−80±2%	179±22%	−36±1%	330±27%	−27±2%			CC(O)CC(C)(C)O (racemic) [MPD, 2-methyl-2,4-pentanediol]
−18±2%		−4±1%	132±9%	−3±1%			CCO [EtOH, ethanol]
					51±8%	36±6%	C[N+](C)(C)CCOC(N)=O [Carbachol]
